Test results taken from PMC8877905, “Novel Cocrystals of Vonoprazan: Machine Learning-Assisted Discovery” (Pharmaceutics, 2022).
Where two headings read alike, the source gives them in different places.

What was measured:
[1] = pKa calculation with ChemAxon calculator and ΔpKa rule; conditions: pKa (base) − pKa (acid); VPZ pKa = 9.4 versus calculated coformer pKa
Text: The combination with a value 0 ≤ ΔpKa ≤ 3 is much less predictable and falls within a “salt-cocrystal continuum” [38]. We applied this approach to the coformers selected based on virtual cocrystal screening to assess whether the combination would form a cocrystal or salt (Table 1).

[2] = Equilibrium solubility in pH 1.2 and pH 6.8 solutions, 37 °C, 24 h, HPLC; type: physicochemical; conditions: for solubility thermodynamic at 24 h: 37 °C, VPZ concentration by HPLC
Description: Excess amounts (~500 mg) of powder samples were added to 10 mL of pH 1.2 solution and 30 mL of pH 6.8 solution. […] After 24 h, aliquots of 2.5 mL were withdrawn from the suspension using a 0.45 μm nylon syringe filter and diluted immediately, followed by analysis of the VPZ concentration by HPLC.
The VPZ concentration was measured using an HPLC system (UFLC; Shimadzu) with a diode array detector and Shim-pack GIS-ODS C18 column (4.6 × 250 mm, 5 μm). HPLC analysis was conducted at a column oven temperature of 40 °C with a flow rate of 1 mL/min, and the mobile phase was a mixture of 20 mM ammonium formate in water (pH 3.05) and HPLC-grade MeOH with the addition of 10 mM triethylamine (TEA) (80% : 20%, v/v). The volume of the injected samples was 10 μL and the VPZ content was assayed spectrophotometrically at a wavelength of 245 nm.

[3] = Stability in aqueous solution: PXRD of solids remaining after 24 h slurry; type: physicochemical; conditions: pH 6.8 solution, slurry for 24 h
Description: The solubility and dissolution behavior of drugs in aqueous solvent are important physicochemical properties for good oral bioavailability. VPZ has pH-dependent solubility, which increases with decreasing pH. […] The aqueous solubility for cocrystals and salts of VPZ was measured in pH 1.2 and 6.8 buffer solutions at 37 °C. VPZ concentrations were determined in aliquots retrieved from the suspensions after 24 h by HPLC. One of the major challenges in investigations of solubility in multicomponent solid forms is the change in the solution composition due to precipitation of the components dissociated over the test period. In this study, the stability of the cocrystals in aqueous solution was checked by PXRD analysis of the solids remaining after solubility experiments. At pH 1.2, however, the amount recovered from the suspensions was too low to confirm their stability. […] Under both conditions, the solubility order was VPZ–RES > VPZ–CAT > VPZ–GAL.

[4] = Intrinsic dissolution rate (IDR) in phosphate buffer pH 6.8; type: physicochemical; conditions: for IDR in pH 6.8: phosphate buffer pH 6.8, 37 °C, 50 rpm, 13 mm pellet
Description: IDR was investigated using a Distek […] dissolution tester (Distek, North Brunswick, NJ, USA). […] Aliquots of 1.5 mL of the dissolution samples were collected at predetermined time intervals, filtered through 0.45 μm syringe filters, and analyzed for their VPZ concentration by HPLC. The VPZ concentration was measured using an HPLC system (UFLC; Shimadzu) with a diode array detector and Shim-pack GIS-ODS C18 column (4.6 × 250 mm, 5 μm). […] The volume of the injected samples was 10 μL and the VPZ content was assayed spectrophotometrically at a wavelength of 245 nm.

[5] = Accelerated stability testing in the solid state; type: physicochemical
[6] = parameters: method as in PMID 28578848; conditions: cited from earlier work

| ΔpKa [1] | Molecule | also measured |
| --- | --- | --- |
| 5.78 | O=C(O)c1ccc[nH]1 [Pyrrole-2-carboxylic acid] | – |
| −0.17 | Oc1cccc(O)c1 [Resorcinol] | – |
| 5.54 | O=C(O)CCC(=O)O [Succinic acid] | – |
| −6.9 | NC(N)=O [Urea] | – |
| 7.46 | O=C1NS(=O)(=O)c2ccccc21 [saccharin] | – |

The next lines start with the molecule.

| Molecule | ΔpKa [1] | also measured |
| --- | --- | --- |
| O=C(O)c1ccc(O)cc1 [4-hydroxybenzoic acid] | 5.02 | – |
| NC(=O)c1ccccc1 [Benzamide] | −5.16 | – |
| NC(=O)CO [Glycolamide] | −4.25 | – |
| Oc1ccc(O)cc1 [Hydroquinone] | −0.58 | – |
| NC(=O)c1ccncc1 [Isonicotinamide] | −4.31 | – |
| Cc1cc(O)ccc1O [Methyl-hydroquinone] | −0.7 | – |
| NC(=O)c1cccnc1 [Nicotinamide] | −3.99 | – |
| NC(=O)C(=O)O [Oxamic acid] | 6.92 | – |
| Oc1ccccc1O [Pyrocatechol] | −0.24 | – |
| Oc1cccc(O)c1O [Pyrogallol] | 0.3 | – |
| O=C1CC[C@@H](C(=O)O)N1 [Pyroglutamic acid] | 5.79 | – |
| CNCc1cc(-c2ccccc2F)n(S(=O)(=O)c2cccnc2)c1.O=C(O)/C=C/C(=O)O [VPZ-FUM, 1-[5-(2-Fluorophenyl)-1-(pyridin-3-ylsulfonyl)-1H-pyrrol-3-yl]-N-methylmethanamine monofumarate] | – | solubility at 24 h ([2]; Figure 7a, pH 1.2 buffer, read-out: Solubility in pH 1.2 buffer, Concentration): 27.6 mg/mL; solubility at 24 h ([2]; Figure 7b, pH 6.8 buffer, read-out: Solubility in pH 6.8 buffer, Concentration): 3.4 mg/mL; solubility thermodynamic at 24 h ([2]; pH 1.2 solution, read-out: Equilibrium Solubility after 24 h in pH 1.2): 27.71 ± 0.21 mg/mL; solubility thermodynamic at 24 h ([2]; pH 6.8 solution, read-out: Equilibrium Solubility after 24 h in pH 6.8): 3.4 ± 0.45 mg/mL; stability in aqueous solution (PXRD of undissolved residue) [3]: different from those of the starting material; time to reach peak concentration in IDR plot ([4]; pH 6.8 buffer): ≤ 60 min; IDR in pH 6.8 [4]: 1.35 mg/cm^2∙min; stability in the solid state [5]: remained stable; reported solubility in water [6]: < 1 mg/mL |
| Vonoprazan–pyrogallol [VPZ-GAL] | – | IDR in pH 6.8 [4]: 0.69 mg/cm^2∙min |
